The record followed here is patent US20160272635A1, “SUBSTITUTED DIHYDROPYRIDO[3,4-B]PYRAZINONES AS DUAL INHIBITORS OF BET PROTEINS AND POLO-LIKE KINASES” (BAYER PHARMA AKTIENGESELLSCHAFT, priority 2013, published 2016).

Like-named read-outs stand apart in the source and are kept apart here.

Test [1] concerns MOLM-13 cell line. Briefly: MOLM-13 cell proliferation assay (alamarBlue). The test is classed as cell-based. The conditions noted are these: Homo sapiens; MOLM-13 cells, 96 hours incubation, inhibition of cell proliferation. On the procedure:
In accordance with the invention, the substances were tested for their ability to inhibit the proliferation of the MOLM-13 cell linie (Deutsche Sammlung far Mikroorganismen and Zellkulturen [German Collection of Microorganisms and Cell Cultures], ACC 554). Cell viability was determined by means of the alamarBlue® reagent (Invitrogen) in a Victor X3 Multilabel Reader (Perkin Elmer). The excitation wavelength was 530 nm and the emission wavelength […].
The MOLM-13 cells were shown at a density of 4000 cells/well in 100 μl of growth medium on 96-well microtitre plates. After overnight incubation at 37° C., the fluorescence values (CI values) were determined. The plates were then treated with various substance dilutions and incubated at 37° C. for 96 hours. Subsequently, the fluorescence values were determined (CO values). For the data analysis, the CI values were subtracted from the CO values and the results were compared between cells which had been treated with various dilutions of the substance or only with buffer solution. The IC50 values (substance concentration needed for 50% inhibition of cell proliferation) were calculated therefrom.
For orientation: The colour change of resazurin is a common sign of viable cells or microbes.

Test [2] deals with T1, BRD4 bromo domain 1 [BRD4(1)] (Homo sapiens, UniProt O60885).
T1 construct: N-terminally His6-tagged BRD4(1) (amino acids 67-152); made in house; host or cells: E. coli
Briefly: BRD4(1)/acetylated peptide H4 binding assay (TR-FRET). The conditions noted are these: inhibition of interaction between BRD4(1) and acetylated histone H4 peptide. The source says:
To assess the BRD4(1) binding strength of the substances described in this application, the ability thereof to inhibit the interaction between BRD4(1) and acetylated histone H4 in a dose-dependent manner was quantified.
For this purpose, a time-resolved fluorescence resonance energy transfer (TR-FRET) assay was used, which measures the binding between N-terminally His6-tagged BRD4(1) (amino acids 67-152) and a synthetic acetylated histone H4 (Ac-H4) peptide with sequence GRGK(Ac)GGK(Ac)GLGK(Ac)GGAK(Ac)RHGSGSK-biotin. The recombinant BRD4(1) protein produced in-house according to Filippakopoulos et al., Cell, 2012, 149:214-231 was expressed in E. coli and purified by means of (Ni-NTA) affinity and (Sephadex G-75) size exclusion chromatography. The Ac-H4 peptide can be purchased, for example, from Biosyntan (Berlin, Germany).
In the assay, typically 11 different concentrations of each substance (0.1 nM, 0.33 nM, 1.1 nM, 3.8 nM, 13 nM, 44 nM, 0.15 μM, 0.51 μM, 1.7 μM, 5.9 μM and 20 μM) were analysed as duplicates on the same microtitre plate. For this purpose, 100-fold concentrated solutions in DMSO were prepared by serial dilutions (1:3.4) of a 2 mM stock solution into a clear, 384-well microtitre plate (Greiner Bio-One, Frickenhausen, Germany). From this, 50 n1 were transferred into a black test plate (Greiner Bio-One, Frickenhausen, Germany). The test was started by the addition of 2 μl of a 2.5-fold concentrated BRD4(1) solution (final concentration typically 10 nM in the 5 μl of reaction volume) in aqueous assay buffer [50 mM HEPES pH 7.5, 50 mM sodium chloride (NaCl), 0.25 mM CHAPS and 0.05% serum albumin (BSA)] to the substances in the test plate. This was followed by a 10-minute incubation step at 22° C. for the pre-equilibration of putative complexes between BRD4(1) and the substances.
The mixture was then incubated in the dark at 22° C. for one hour and then at 4° C. for at least 3 hours and for no longer than overnight. The formation of BRD4(1)/Ac-H4 complexes was determined by the measurement of the resonance energy transfer from the streptavidin-Eu cryptate to the anti-6His-XL665 antibody present in the reaction. For this purpose, the fluorescence emission was measured at 620 nm and 665 nm after excitation at 330-350 nm in a TR-FRET measuring instrument, for example a Rubystar or Pherastar (both from BMG Lab Technologies, Offenburg, Germany) or a Viewlux (Perkin-Elmer). The ratio of the emissions at 665 nm and at 622 nm was taken as an indicator of the amount of BRD4(1)/Ac-H4 complexes formed.
The data (ratios) obtained were normalized, with 0% inhibition corresponding to the mean from the measurements for a set of controls (typically 32 data points) in which all the reagents were present. In these, in place of test substances, 50 nl of DMSO (100%) were used Inhibition of 100% corresponded to the mean from the measurements for a set of controls (typically 32 data points) in which all the reagents except BRD4(1) were present. The IC50 was determined by regression analysis based on a 4-parameter equation (minimum, maximum, IC50, Hill; Y=Max+(Min−Max)/(1+(X/IC50)Hill).
For orientation: Time-resolved FRET reads energy transfer from a long-lived donor to a nearby acceptor.

The target in test [3] is T2, Plk-1 (Homo sapiens, UniProt P53350).
T2 construct: Recombinant fusion protein consisting of GST and Plk (kinase domain 33-345); MW 36 kDa; GST; made in house; host or cells: insect cells (Hi5)
T2 sequence (P53350 33-345): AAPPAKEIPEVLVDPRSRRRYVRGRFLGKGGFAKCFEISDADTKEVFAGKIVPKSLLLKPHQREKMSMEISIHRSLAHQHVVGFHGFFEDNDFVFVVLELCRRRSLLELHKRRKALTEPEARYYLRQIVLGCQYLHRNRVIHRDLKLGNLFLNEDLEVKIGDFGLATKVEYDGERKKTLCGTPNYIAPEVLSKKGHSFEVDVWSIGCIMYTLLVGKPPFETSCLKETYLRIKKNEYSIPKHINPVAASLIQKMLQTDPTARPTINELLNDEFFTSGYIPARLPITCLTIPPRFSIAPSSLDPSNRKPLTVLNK
Briefly: Plk-1 enzyme assay (indirect HTRF kinase assay). Format: biochemical. The protocol: Recombinant fusion protein consisting of GST and Plk (kinase domain 33-345; MW 36 kDa, conc 0.8 μg/μl) expressed from insect cells (Hi5) and purified by glutathione Sepharose affinity chromatography and subsequent gel filtration (Superdex 75) is used for the kinase assay. Aliquots thereof are frozen in liquid nitrogen and stored at −80° C. and, after thawing, used only once.
The assay used is an indirect HTRF assay which employs the following materials and procedures. The substrate used for the kinase reaction is the biotinylated peptide Btn-Ahx-KKLNRTLSFAEPG-amide x TFA from Biosyntan, Sample No.: 6178.1 (C-terminus in amide form). This is an artificial sequence not derived from any known protein. 50 nl of the test compounds dissolved in 100% dimethyl sulphoxide (DMSO) (final concentrations: 0 μM and concentrations in the range of 0.001-20 μM) are pre-incubated with 2 μl Plk-1 enzyme working solution in working buffer [25 mM MgCl2; 1 mM DTT; 50 mM Hepes pH 7.0; 0.01% NP40; 1× Complete; 0.05% BSA] for 30 min. The kinase reaction is then initiated by addition of 3 μl of substrate solution [adenosine triphosphate (ATP) and 1.4 μM substrate peptide (biotin-Ttds-KKLNRTLSFAEPG-NH2)] in working buffer, and, after 30 min, stopped by addition of a stopper solution (100 mM EDTA, 100 mM Hepes pH 7.5, 800 mM potassium fluoride, 0.12% BSA, 0.4 μM SA-XLent (0.05 μM, from CIS bio international, Marcoule, France), Eu^3+ cryptate-conjugated rabbit anti-mouse IgG (1.5 nM; an anti-mouse IgG antibody labelled with europium cryptate from CIS bio international, Marcoule, France), 1 nM anti-phospho-serine kinase (a phospho-specific antibody from Upstate Biotechnology, Dundee, Scotland), and incubated at 4° C. overnight.
For the test at low ATP concentration, a 1.25 ng/μl Plk-1 working solution and 16.7 μM ATP are used, for the test at high ATP concentration, a 0.039 ng/μl Plk-1 working solution and 16.7 mM ATP are used.
The amount of phosphorylated substrate peptide is then determined by measuring the resonance energy transfer from europium-labelled antibody complex to streptavidine-XLent. To this end, the fluorescence emission at 620 nm and 665 nm is measured following excitation at 350 nm in an HTRF measuring instrument, e.g. Rubystar (BMG Labtechnologies, Offenburg, Germany) or Viewlux (Perkin-Elmer). The ratio of the emissions at 665 nm and at 620 nm is taken as a measure of the amount of phosphorylated substrate peptide. The data are normalized (enzyme reaction without inhibitor=0% inhibition, all other assay components, but no enzyme=100% inhibition), and IC50 values are calculated using a 4 parameter equation (minimum, maximum, IC50, Hill; Y=max+(min−max)/(1+(X/IC50)Hill)).

Where [4] appears, read: 10 μM ATP (low ATP concentration), read-out: IC50 [Plk-1] (10 μM ATP).
Setting [5] is: 10 mM ATP (high ATP concentration), read-out: IC50 [Plk-1] (10 mM ATP).

One may read the IC50 as the concentration that gives 50% inhibition. Turning to `CC[C@@H]1C(=O)N(C)c2cnc(Nc3ncc(C(=O)N[C@@H]4CCCCNC4=O)cc3C)cc2N1C1CCCC1` [Example 15], the IC50 in test [1] stood at 77 nM; in test [2], 496 nM; in test [3] (setting [4]), 13 nM; in test [3] (setting [5]) it was 22 nM.

On to `CCc1cc(C(=O)N[C@@H]2CCCCNC2=O)cnc1Nc1cc2c(cn1)N(C)C(=O)[C@@H](CC)N2C1CCCC1` [Example 9, 6-{[(2R)-1-Cyclopentyl-2-ethyl-4-methyl-3-oxo-1,2,3,4-tetrahydropyrido[3,4-b]pyrazin-7-yl]amino}-5-ethyl-N-[(3R)-2-oxoazepan-3-yl]pyridine-3-carboxamide], for which the IC50 is 76 nM in test [1], 343 nM in test [2] and 17 nM in test [3] (setting [5]).

As to `CC[C@@H]1C(=O)N(C)c2cnc(Nc3ncc(C(=O)NC4CCN(C)CC4)cc3C)cc2N1C1CCCC1` [Example 18, 6-[[(2R)-1-Cyclopentyl-2-ethyl-1,2,3,4-tetrahydro-4-methyl-3-oxopyrido[3,4-b]pyrazin-7-yl]amino]-5-methyl-N-(1-methyl-4-piperidinyl)pyridine-3-carboxamide], the figures for the IC50 in test [1], in test [2] and in test [3] (setting [5]) were 42 nM, 649 nM and 7 nM, respectively.

For the molecule `CCc1cc(C(=O)NC2CC2)cnc1Nc1cc2c(cn1)N(C)C(=O)[C@@H](CC)N2C1CCCC1` [Example 3, 6-{[(2R)-1-Cyclopentyl-2-ethyl-4-methyl-3-oxo-1,2,3,4-tetrahydropyrido[3,4-b]pyrazin-7-yl]amino}-N-cyclopropyl-5-ethylpyridine-3-carboxamide], the IC50 in test [1] came to 61 nM; in test [2] it was 199 nM; in test [3] (setting [4]), 8 nM; in test [3] (setting [5]), 17 nM.

For the molecule `CC[C@@H]1C(=O)N(C)c2cnc(Nc3ncc(C(=O)NCC(F)(F)F)cc3OC)cc2N1C1CCCC1` [Example 7, 6-[[(2R)-1-Cyclopentyl-2-ethyl-1,2,3,4-tetrahydro-4-methyl-3-oxopyrido[3,4-b]pyrazin-7-yl]amino]-5-methoxy-N-(2,2,2-trifluoroethyl)-3-pyridinecarboxamide], the IC50 was 80 nM in test [1], 276 nM in test [2], 11 nM in test [3] (setting [4]) and 30 nM in test [3] (setting [5]).

For the molecule `CC[C@@H]1C(=O)N(C)c2cnc(Nc3ncc(C4=NC(C)(C)CO4)cc3OC)cc2N1C1CCCC1` [Example 19, 1N-Cyclopentyl-7-[[5-(4,5-dihydro-4,4-dimethyl-2-oxazolyl)-3-methoxy-2-pyridinyl]amino]-(2R)-ethyl-4N-methyl-1,4-dihydropyrido[3,4-b]pyrazin-3(2H)-one], the IC50 in test [1] turned out to be 362 nM; in test [2] it was 732 nM; in test [3] (setting [5]) it was 99 nM.

`CC[C@@H]1C(=O)N(C)c2cnc(Nc3ncc(C(=O)NC4CC4)cc3C)cc2N1C1CCCC1` [Example 13, 6-{[(2R)-1-Cyclopentyl-2-ethyl-4-methyl-3-oxo-1,2,3,4-tetrahydropyrido[3,4-b]pyrazin-7-yl]amino}-N-cyclopropyl-5-methylpyridine-3-carboxamide]: the IC50 in test [1] is 56 nM; in test [2], 434 nM; in test [3] (setting [4]) it was 7 nM; in test [3] (setting [5]), 15 nM.

As for `CC[C@@H]1C(=O)N(C)c2cnc(Nc3ncc(C(=O)NC(C)(C)CO)cc3OC)cc2N1C1CCCC1` [Example 11, 6-[[(2R)-1-Cyclopentyl-2-ethyl-1,2,3,4-tetrahydro-4-methyl-3-oxopyrido[3,4-b]pyrazin-7-yl]amino]-N-(2-hydroxy-1,1-dimethylethyl)-5-methoxy-3-pyridinecarboxamide], the IC50 in test [1] was 74 nM; in test [2], 393 nM; in test [3] (setting [5]), 57 nM.

As for `CC[C@@H]1C(=O)N(C)c2cnc(Nc3ncc(C(=O)NC4CCCCC4)cc3OC)cc2N1C1CCCC1` [Example 20, N-Cyclohexyl-6-[[(2R)-1-cyclopentyl-2-ethyl-1,2,3,4-tetrahydro-4-methyl-3-oxopyrido[3,4-b]pyrazin-7-yl]amino]-5-methoxypyridine-3-carboxamide], the IC50 in test [1] was 101 nM; in test [2], 878 nM; in test [3] (setting [5]), 35 nM.

`CC[C@@H]1C(=O)N(C)c2cnc(Nc3ncc(C(=O)NC4CCN(C)CC4)cc3OC)cc2N1C1CCCC1` [Example 14, 6-[[(2R)-1-Cyclopentyl-2-ethyl-1,2,3,4-tetrahydro-4-methyl-3-oxopyrido[3,4-b]pyrazin-7-yl]amino]-5-methoxy-N-(1-methyl-4-piperidinyl)-3-pyridinecarboxamide]: the IC50 in test [1] came out at 32 nM; in test [2], 458 nM; in test [3] (setting [4]), 11 nM; in test [3] (setting [5]) it was 29 nM.
